The values that follow come from patent publication US20070010466A1 (priority 2005, published 2007).

Entries after “also recorded” stand apart in the source; their conditions may differ.

For data set [1] the following is noted: clinical trials; cited from earlier work.
For data set [2], the target named is T1, P-gp function on circulating natural killer (NK) cells and leukemic blasts (Homo sapiens, UniProt P08183).
T1 construct: Pharmacodynamic assessments of cellular P-gp function were conducted using an accumulation assay with DiOC2 and flow cytometry; endogenous in cells; host or cells: circulating NK cells and leukemic blasts from AML patients
In words: cellular P-gp function, DiOC2 accumulation assay with flow cytometry, in AML patients. The format is in vivo. As for the experimental part:
Cytarabine was also administered (100 mg/m^2/day) starting after the first dose of daunorubicin as a continuous intravenous infusion on days 1-7. Blood samples were taken at intervals for pharmacokinetic and pharmacodynamic studies. Pharmacokinetic drug determinations were conducted by HPLC. Pharmacodynamic assessments of cellular P-gp function were conducted using an accumulation assay with DiOC2 and flow cytometry. P-gp function was assessed on circulating natural killer (NK) cells and leukemic blasts. […] Means of 3 patients for each time point are shown.

For data set [3] the following is noted: preclinical models, several oncolytics; cited from earlier work.

T1 sequence (P08183 whole entry): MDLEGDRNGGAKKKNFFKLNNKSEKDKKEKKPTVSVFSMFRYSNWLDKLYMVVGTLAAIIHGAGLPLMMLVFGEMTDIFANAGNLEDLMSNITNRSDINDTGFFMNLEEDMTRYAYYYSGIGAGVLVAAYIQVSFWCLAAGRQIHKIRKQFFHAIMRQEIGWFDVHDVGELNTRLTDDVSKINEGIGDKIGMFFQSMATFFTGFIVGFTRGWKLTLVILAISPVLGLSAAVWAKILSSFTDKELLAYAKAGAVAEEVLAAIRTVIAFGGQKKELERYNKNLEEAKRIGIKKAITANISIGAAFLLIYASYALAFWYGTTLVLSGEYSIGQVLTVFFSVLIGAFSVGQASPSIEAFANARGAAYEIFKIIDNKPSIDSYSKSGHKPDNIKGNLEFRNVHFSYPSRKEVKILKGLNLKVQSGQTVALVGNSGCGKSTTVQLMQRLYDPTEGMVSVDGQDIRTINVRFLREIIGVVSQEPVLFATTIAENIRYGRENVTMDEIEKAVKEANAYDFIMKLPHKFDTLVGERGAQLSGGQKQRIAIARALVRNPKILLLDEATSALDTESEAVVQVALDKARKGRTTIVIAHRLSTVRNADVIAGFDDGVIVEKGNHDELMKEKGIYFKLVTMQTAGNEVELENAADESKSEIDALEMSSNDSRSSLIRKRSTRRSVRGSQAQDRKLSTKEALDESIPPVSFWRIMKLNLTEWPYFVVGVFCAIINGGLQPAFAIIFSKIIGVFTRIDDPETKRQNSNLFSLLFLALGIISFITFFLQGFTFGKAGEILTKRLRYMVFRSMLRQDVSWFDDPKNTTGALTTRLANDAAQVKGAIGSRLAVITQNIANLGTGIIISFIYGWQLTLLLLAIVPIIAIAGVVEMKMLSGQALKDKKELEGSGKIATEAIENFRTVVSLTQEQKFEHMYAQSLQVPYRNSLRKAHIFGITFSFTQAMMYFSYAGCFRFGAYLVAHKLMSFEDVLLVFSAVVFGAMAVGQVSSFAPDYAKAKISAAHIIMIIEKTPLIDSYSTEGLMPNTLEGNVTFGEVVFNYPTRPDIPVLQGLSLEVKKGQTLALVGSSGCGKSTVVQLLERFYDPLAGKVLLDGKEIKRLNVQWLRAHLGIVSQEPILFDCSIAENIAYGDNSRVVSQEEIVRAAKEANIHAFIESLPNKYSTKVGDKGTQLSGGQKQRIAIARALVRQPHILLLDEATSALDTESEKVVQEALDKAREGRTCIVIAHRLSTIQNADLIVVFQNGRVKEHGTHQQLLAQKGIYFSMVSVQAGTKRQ

On to `C/C=C/C[C@@H](C)C(=O)[C@H]1C(=O)N[C@@H](C(C)C)C(=O)N(C)CC(=O)N(C)[C@@H](CC(C)C)C(=O)N[C@@H](C(C)C)C(=O)N(C)[C@@H](CC(C)C)C(=O)N[C@@H](C)C(=O)N[C@H](C)C(=O)N(C)[C@@H](CC(C)C)C(=O)N(C)[C@@H](CC(C)C)C(=O)N(C)[C@@H](C(C)C)C(=O)N1C` [valspodar], for which the “pharmacokinetic interaction with coadministered cytotoxic agents” value in data set [1] is “significant pharmacokinetic interactions”.

Take `O[C@@H](COc1cccc2ncccc12)CN1CCN([C@@H]2c3ccccc3[C@@H]3[C@H](c4ccccc42)C3(F)F)CC1` [zosuquidar]: the “continued inhibition of P-gp functional activity after infusion was halted” value in data set [2] (after 72 hour infusion) is listed as “at least 12 hours”. The “time to potent inhibition of P-gp function after start of infusion” value in data set [2] (both NK cells and leukemic blasts, 700 mg/day continuous iv infusion) is at most 2 h. In addition, the “pharmacokinetic interaction with co-administered chemotherapy” value in data set [3] is on record as “no pharmacokinetic interaction; also recorded: minimal pharmacokinetic (PK) interactions”.
